System: human atherosclerotic plaques
Assay: Autoradiography binding study on human atherosclerotic plaque sections
Details: 2.5 nM; for maximal bound ^11C-Compound 4: average value (red line), 20 min, room temperature, values normalized to vulnerable plaque 8
Description: Compound 4 was labeled with ^11C (specific activity ~350 GBq/µmol) and human atherosclerotic sections were incubated with 2.5 nM for 20 min, room temperature. Nonspecific binding was determined in the presence of excess nonradioactive Compound 4 (100 µM). After washing to remove unspecific bound ^11C-Compound 4, slides were exposed to a radiosensitive film (BAS-5000 Fujifilm) for 30 min. Calibration standards (2.5 - 0.02 nM) were included in the cassette. Films were developed using an automatic film processor (BAS 5000, Fuji) Quantitative analysis was performed using a computerized image analysis system (AIDA Image Analyzer Software). Optical density readings, corrected for background, were made and values standardized against the linear portion of a curve generated using standards and expressed as maximal bound ^11C-Compound 4. Values were normalized to patient "vulnerable plaque 8" (Fig. 5).

- maximal bound ^11C-Compound 4 (Fig. 5 (B)): 0.7
- maximal bound ^11C-Compound 4 (Fig. 5 (C), stable plaques): 0.15
- maximal bound ^11C-Compound 4 (Fig. 5 (C), vulnerable plaques): 1.2
SMILES: [11CH3]N1CCC(NC(=O)c2ccc(-n3nc4c5cccc(F)c5[nH]nc-4c3=O)cc2)CC1 [^11C-Compound 4]
- binding to vulnerable plaques compared to stable plaques (conclusion in words from the autoradiography): higher affinity to vulnerable plaques compared to stable plaques

Source: patent EP2676666A1, “Compounds for use in diagnosis or therapy of vulnerable atherosclerotic plaques” (Eidgenössische Technische Hochschule Zürich (ETH), priority 2012, dated 2013)
